Patent US6933318B1, “Topical organic ectoparasiticidal formulations” (Eli Lilly and Company, priority 1999, dated 2005)
Entries after “also recorded” stand apart in the source; their conditions may differ.

Experiment: Wetting test of solvent systems on tanned rabbit pelt
Format: physicochemical
Details: about 1 mL solvent without active ingredient, dropwise, pelt at about 45°
Experimental: To determine organic solvents that are useful spreading agents, solvent systems that are capable of solubilizing at least 1% spinosad by weight percent were screened for hair wetting by applying about 1 mL of the solvent system (solvents were screened without active ingredient), dropwise, to a tanned rabbit pelt that was at an angle of about 45°. […]

Row | Compound | Ability to wet rabbit hair
1 | CCCCCCCCCC(=O)OC [methyl caprate] | Wet Well
2 | C=C(C)[C@H]1CC=C(C)CC1 [limonene] | Wet Well
3 | CC(=O)OCC(COC(C)=O)OC(C)=O [triacetin] | Did Not Wet
4 | CCCCCCO [hexanol] | Wet Well
5 | CCCCCCCC/C=C\CCCCCCCC(=O)OC [methyl oleate] | Wet Well
6 | CCCCCCCC/C=C\CCCCCCCC(=O)OCC [ethyl oleate] | Wet Well
7 | CC(O)CO (stereo not shown) [propylene glycol] | Did Not Wet
8 | CN1CCCC1=O [N-methyl pyrrolidone] | Did Not Wet
9 | CCCCCCCC(=O)O [octanoic acid] | Wet Well
10 | COC(C)COC(C)CO (stereo not shown) [dipropylene glycol methyl ether] | wet the hair very well; also recorded: Wet Well
11 | CCCCCCCCCCCC(=O)OC [methyl laurate] | Wet Well
12 | CCCCCCCCCCCCCC(=O)OC(C)C [isopropyl myristate] | Wet Well
13 | CCCCOC(=O)C(C)O (stereo not shown) [butyl lactate] | Wet Well
